From patent publication US7834007B2, “CGRP antagonists” (Bristol-Myers Squibb Company, priority 2005, dated 2010)
pIC50: −log10 of the molar value.

target: T1, CGRP receptor (Homo sapiens, UniProt O60894+Q16602); test: CGRP radioligand binding assay ([125I]-CGRP displacement, SK-N-MC cell homogenate); settings: displacement of 50% of [125I]-CGRP binding, room temperature 2 h
T1 construct: endogenous in cells; host or cells: SK-N-MC cells (membrane homogenate)
Experimental: CGRP radioligand binding assay. Tissue Culture. SK-N-MC cells were grown at 37° C. in 5% CO2 as a monolayer in medium consisting of MEM with Earle's salts and L-glutamine (Gibco) supplemented with 10% fetal bovine serum (Gibco).
Cell Pellets. The cells were rinsed twice with phosphate-buffered saline (155 mM NaCl, 3.3 mM Na2HPO4, 1.1 mM KH2PO4, pH 7.4), and incubated for 5-10 min. at 4° C. in hypotonic lysis buffer consisting of 10 mM Tris (pH 7.4) and 5 mM EDTA. The cells were transferred from plates to polypropylene tubes (16×100 mm) and homogenized using a polytron. Homogenates were centrifuged at 32,000×g for 30 min. The pellets were resuspended in cold hypotonic lysis buffer with 0.1% mammalian protease inhibitor cocktail (Sigma) and assayed for protein concentration. The SK-N-MC homogenate was then aliquoted and stored at −80° C. until needed.
Binding Assay. The compounds of invention were solubilized and carried through serial dilutions using 100% DMSO. Aliquots from the compound serial dilutions were further diluted 25 fold into assay buffer (50 mM Tris-Cl pH 7.5, 5 mM MgCl2, 0.005% Triton X-100) and transferred (volume 50 μl) into 96 well assay plates. [^125I]-CGRP (Amersham Biosciences) was diluted to 60 pM in assay buffer and a volume of 50 μl was added to each well. SK-N-MC pellets were thawed, diluted in assay buffer with fresh 0.1% mammalian protease inhibitor cocktail (Sigma), and homogenized again. SK-N-MC homogenate (5 μg/well) was added in a volume of 100 μl. The assay plates were then incubated at room temperature for 2 h. Assays were stopped by addition of excess cold wash buffer (20 mM Tris-Cl pH 7.5, 0.1% BSA) immediately followed by filtration over glass fiber filters (Whatman GF/B) previously soaked in 0.5% PEI. Non-specific binding was defined with 1 μM beta-CGRP. Protein bound radioctivity was determined using a gamma or scintillation counter. The IC50 was defined as the concentration of a compound of invention required to displace 50% of radioligand binding. Results are tabulated in Table 1 as follows: 0.01 nM≦A≦10 nM; 10 nM<B≦100 nM; 100 nM<C≦1000 nM; D>1000 nM.

T1 sequence (Q16602 23-461): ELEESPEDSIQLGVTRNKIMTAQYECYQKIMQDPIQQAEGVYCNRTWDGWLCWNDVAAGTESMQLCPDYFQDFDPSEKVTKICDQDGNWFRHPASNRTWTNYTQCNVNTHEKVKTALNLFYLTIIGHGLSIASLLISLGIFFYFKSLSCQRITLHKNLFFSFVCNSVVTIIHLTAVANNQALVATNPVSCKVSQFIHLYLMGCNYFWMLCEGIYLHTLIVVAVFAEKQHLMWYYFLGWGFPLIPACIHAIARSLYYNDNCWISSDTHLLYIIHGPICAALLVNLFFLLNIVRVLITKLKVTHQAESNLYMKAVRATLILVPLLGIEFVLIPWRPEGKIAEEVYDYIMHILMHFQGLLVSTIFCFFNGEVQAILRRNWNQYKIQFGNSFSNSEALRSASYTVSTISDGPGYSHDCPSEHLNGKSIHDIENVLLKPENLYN
T1 sequence (O60894 27-148): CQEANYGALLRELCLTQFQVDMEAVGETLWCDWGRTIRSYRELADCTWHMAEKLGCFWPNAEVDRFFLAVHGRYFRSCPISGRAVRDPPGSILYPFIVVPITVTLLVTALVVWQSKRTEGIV

pIC50, 8.00 to 11.00:
Cc1cc(C[C@@H](NC(=O)N2CCC(c3cc4ccccc4[nH]c3=O)CC2)C(=O)N[C@@H](CCCCN)C(=O)N2CCN(c3ccncc3)CC2)cc2cn[nH]c12 [Example 2, N-((R)-1-((S)-6-amino-1-oxo-1-(4-(pyridin-4-yl)piperazin-1-yl)hexan-2-ylamino)-3-(7-methyl-1H-indazol-5-yl)-1-oxopropan-2-yl)-4-(2-oxo-1,2-dihydroquinolin-3-yl)piperidine-1-carboxamide]
Cc1cc(C[C@@H](NC(=O)N2CCC(N3Cc4ccccc4NC3=O)CC2)C(=O)N[C@@H](CCCCNC(=O)OC(C)(C)C)C(=O)N2CCN(c3ccncc3)CC2)cc2cn[nH]c12 [Example 3, tert-Butyl (S)-5-((R)-3-(7-methyl-1H-indazol-5-yl)-2-(4-(2-oxo-1,2-dihydroquinazolin-3(4H)-yl)piperidine-1-carboxamido)propanamido)-6-oxo-6-(4-(pyridin-4-yl)piperazin-1-yl)hexylcarbamate]
Cc1cc(C[C@@H](NC(=O)N2CCC(N3Cc4ccccc4NC3=O)CC2)C(=O)N[C@@H](CCCCN)C(=O)N2CCN(c3ccncc3)CC2)cc2cn[nH]c12 [Example 4, N-((R)-1-((S)-6-Amino-1-oxo-1-(4-(pyridin-4-yl)piperazin-1-yl)hexan-2-ylamino)-3-(7-methyl-1H-indazol-5-yl)-1-oxopropan-2-yl)-4-(2-oxo-1,2-dihydroquinazolin-3(4H)-yl)piperidine-1-carboxamide]
Cc1cc(C[C@@H](NC(=O)N2CCC(c3cc4ccccc4[nH]c3=O)CC2)C(=O)N[C@@H](CCCCN)C(=O)N2CCC(N3CCCCC3)CC2)cc2cn[nH]c12 [Example 5, N-((R)-1-((S)-6-amino-1-oxo-1-(4-(piperidin-1-yl)piperidin-1-yl)hexan-2-ylamino)-3-(7-methyl-1H-indazol-5-yl)-1-oxopropan-2-yl)-4-(2-oxo-1,2-dihydroquinolin-3-yl)piperidine-1-carboxamide]
Cc1cc(C[C@@H](NC(=O)N2CCC(c3cc4cccc(F)c4[nH]c3=O)CC2)C(=O)N[C@@H](CCCCN)C(=O)N2CCN(c3ccncc3)CC2)cc2cn[nH]c12 [Example 6, N-((R)-1-((S)-6-amino-1-oxo-1-(4-(pyridin-4-yl)piperazin-1-yl)hexan-2-ylamino)-3-(7-methyl-1H-indazol-5-yl)-1-oxopropan-2-yl)-4-(8-fluoro-2-oxo-1,2-dihydroquinolin-3-yl)piperidine-1-carboxamide]
Cc1cc(C[C@@H](NC(=O)N2CCC(c3cc4cccnc4[nH]c3=O)CC2)C(=O)N[C@@H](CCCCN)C(=O)N2CCN(c3ccncc3)CC2)cc2cn[nH]c12 [Example 7, N-((R)-1-((S)-6-amino-1-oxo-1-(4-(pyridin-4-yl)piperazin-1-yl)hexan-2-ylamino)-3-(7-methyl-1H-indazol-5-yl)-1-oxopropan-2-yl)-4-(2-oxo-1,2-dihydro-1,8-naphthyridin-3-yl)piperidine-1-carboxamide]
Cc1cc(C[C@@H](NC(=O)N2CCC(c3cc4ccccc4[nH]c3=O)CC2)C(=O)N[C@@H](CCCCNC(=O)OC(C)(C)C)C(=O)N2CCN(c3ccncc3)CC2)cc2oc(=O)[nH]c12 [Example 8, tert-Butyl (S)-5-((R)-3-(4-methyl-2-oxo-2,3-dihydrobenzo[d]oxazol-6-yl)-2-(4-(2-oxo-1,2-dihydroquinolin-3-yl)piperidine-1-carboxamido)propanamido)-6-oxo-6-(4-(pyridin-4-yl)piperazin-1-yl)hexylcarbamate]
Cc1cc(C[C@@H](NC(=O)N2CCC(N3Cc4cccc(F)c4NC3=O)CC2)C(=O)N[C@@H](CCCCNC(=O)OC(C)(C)C)C(=O)N2CCN(c3ccncc3)CC2)cc2nn[nH]c12 [Example 9, tert-Butyl (S)-5-((R)-2-(4-(8-fluoro-2-oxo-1,2-dihydroquinazolin-3(4H)-yl)piperidine-1-carboxamido)-3-(7-methyl-1H-benzo[d][, 2,3]triazol-5-yl)propanamido)-6-oxo-6-(4-(pyridin-4-yl)piperazin-1-yl)hexylcarbamate]
